Consider six compounds from PubChem BioAssay AID1259407 (Chemical Carcinogenesis Research Information System (CCRIS), 2018).

Active and inactive are the calls of the source. The rule behind the calls is not given here.

In the data set the test system is CCRIS mutagenicity, Ames/micronucleus/aberration tests. Briefly: CCRIS mutagenicity studies.
[1] abbreviates: Test System: AMES SALMONELLA TYPHIMURIUM, Strain/Indicator: TA98, Metabolic Activation: NONE, Method: PREINCUBATION
The mark [2] stands for this setting: Test System: AMES SALMONELLA TYPHIMURIUM, Strain/Indicator: TA100, Metabolic Activation: NONE, Method: PREINCUBATION
Where [3] appears, read: Test System: AMES SALMONELLA TYPHIMURIUM, Strain/Indicator: TA1535, Metabolic Activation: NONE, Method: PREINCUBATION
Where [4] appears, read: Test System: AMES SALMONELLA TYPHIMURIUM, Strain/Indicator: TA1537, Metabolic Activation: NONE, Method: PREINCUBATION
Setting [5] is: Test System: AMES SALMONELLA TYPHIMURIUM, Strain/Indicator: TA100, Metabolic Activation: NONE, Method: STANDARD PLATE.
Setting [6] is: Test System: AMES SALMONELLA TYPHIMURIUM, Strain/Indicator: TA98, Metabolic Activation: NONE, Method: STANDARD PLATE.

As for `NC(=O)NNC(N)=O`, the mutagenic call (Test System: AMES SALMONELLA TYPHIMURIUM, Strain/Indicator: TA97, Metabolic Activation: HAMSTER, LIVER, S-9, AROCLOR 1254 (10 OR 30%), Method: PREINCUBATION) was “inactive; negative”; the mutagenic call (Test System: AMES SALMONELLA TYPHIMURIUM, Strain/Indicator: TA97, Metabolic Activation: NONE, Method: PREINCUBATION) is “inactive; negative”; the mutagenic call (Test System: AMES SALMONELLA TYPHIMURIUM, Strain/Indicator: TA97, Metabolic Activation: RAT, LIVER, S-9, AROCLOR 1254 (10 OR 30%), Method: PREINCUBATION) is “inactive; negative”; the mutagenic call (Test System: AMES SALMONELLA TYPHIMURIUM, Strain/Indicator: TA98, Metabolic Activation: HAMSTER, LIVER, S-9, AROCLOR 1254 (10 OR 30%), Method: PREINCUBATION) is “inactive; negative”; the mutagenic call under setting [1] was “inactive; negative”; the mutagenic call (Test System: AMES SALMONELLA TYPHIMURIUM, Strain/Indicator: TA98, Metabolic Activation: RAT, LIVER, S-9, AROCLOR 1254 (10 OR 30%), Method: PREINCUBATION) is “inactive; negative”. In addition, the mutagenic call by setting is: (Test System: AMES SALMONELLA TYPHIMURIUM, Strain/Indicator: TA100, Metabolic Activation: HAMSTER, LIVER, S-9, AROCLOR 1254 (10 OR 30%), Method: PREINCUBATION) “inactive; negative”; under setting [2], “inactive; negative”; (Test System: AMES SALMONELLA TYPHIMURIUM, Strain/Indicator: TA100, Metabolic Activation: RAT, LIVER, S-9, AROCLOR 1254 (10 OR 30%), Method: PREINCUBATION) “inactive; negative”; (Test System: AMES SALMONELLA TYPHIMURIUM, Strain/Indicator: TA1535, Metabolic Activation: HAMSTER, LIVER, S-9, AROCLOR 1254 (10 OR 30%), Method: PREINCUBATION) “inactive; negative”; under setting [3], “inactive; negative”; (Test System: AMES SALMONELLA TYPHIMURIUM, Strain/Indicator: TA1535, Metabolic Activation: RAT, LIVER, S-9, AROCLOR 1254 (10 OR 30%), Method: PREINCUBATION) “inactive; negative”. Moreover, the mutagenic call reads like this: (Test System: AMES SALMONELLA TYPHIMURIUM, Strain/Indicator: TA1537, Metabolic Activation: HAMSTER, LIVER, S-9, AROCLOR 1254 (10 OR 30%), Method: PREINCUBATION) “inactive; negative”; under setting [4], “inactive; negative”; (Test System: AMES SALMONELLA TYPHIMURIUM, Strain/Indicator: TA1537, Metabolic Activation: RAT, LIVER, S-9, AROCLOR 1254 (10 OR 30%), Method: PREINCUBATION) “inactive; negative”.
For `CCC(O)/C=C/C=O` (configuration not stated), the mutagenic call reads like this: (End Point: IN VITRO CHROMOSOMAL ABERRATIONS, Test System: RAT HEPATOCYTES, Metabolic Activation: NONE) “active; positive”; (End Point: IN VITRO MICRONUCLEUS, Test System: RAT HEPATOCYTES, Metabolic Activation: NONE) “active; positive”.
In the case of `O=[N+]([O-])c1cc(Cl)c(Cl)c(Cl)c1Cl`, the mutagenic call was “inactive; negative” (Test System: AMES SALMONELLA TYPHIMURIUM, Strain/Indicator: TA98, Metabolic Activation: HAMSTER, LIVER, S-9, AROCLOR 1254, Method: PREINCUBATION); “inactive; negative” under setting [1]; “inactive; negative” (Test System: AMES SALMONELLA TYPHIMURIUM, Strain/Indicator: TA98, Metabolic Activation: RAT, LIVER, S-9, AROCLOR 1254, Method: PREINCUBATION); “inactive; negative” (Test System: AMES SALMONELLA TYPHIMURIUM, Strain/Indicator: TA100, Metabolic Activation: HAMSTER, LIVER, S-9, AROCLOR 1254, Method: PREINCUBATION); “inactive; negative” under setting [2]; “inactive; negative” (Test System: AMES SALMONELLA TYPHIMURIUM, Strain/Indicator: TA100, Metabolic Activation: RAT, LIVER, S-9, AROCLOR 1254, Method: PREINCUBATION). Besides, the mutagenic call by setting is: (Test System: AMES SALMONELLA TYPHIMURIUM, Strain/Indicator: TA1535, Metabolic Activation: HAMSTER, LIVER, S-9, AROCLOR 1254, Method: PREINCUBATION) “inactive; negative”; under setting [3], “inactive; negative”; (Test System: AMES SALMONELLA TYPHIMURIUM, Strain/Indicator: TA1535, Metabolic Activation: RAT, LIVER, S-9, AROCLOR 1254, Method: PREINCUBATION) “inactive; negative”; (Test System: AMES SALMONELLA TYPHIMURIUM, Strain/Indicator: TA1537, Metabolic Activation: HAMSTER, LIVER, S-9, AROCLOR 1254, Method: PREINCUBATION) “inactive; negative”; under setting [4], “inactive; negative”; (Test System: AMES SALMONELLA TYPHIMURIUM, Strain/Indicator: TA1537, Metabolic Activation: RAT, LIVER, S-9, AROCLOR 1254, Method: PREINCUBATION) “inactive; negative”.
Turning to `CC(C)C(=O)Nc1snc2ccccc12`, the mutagenic call under setting [5] was “inactive; negative”; the mutagenic call (Test System: AMES SALMONELLA TYPHIMURIUM, Strain/Indicator: TA100, Metabolic Activation: S-9, Method: STANDARD PLATE) was “inactive; negative”; the mutagenic call (Test System: AMES SALMONELLA TYPHIMURIUM, Strain/Indicator: TA1537, Metabolic Activation: NONE, Method: STANDARD PLATE) is “inactive; negative”; the mutagenic call (Test System: AMES SALMONELLA TYPHIMURIUM, Strain/Indicator: TA1537, Metabolic Activation: S-9, Method: STANDARD PLATE) is “inactive; negative”.
For `c1ccc(-c2nc(-c3ccccc3)c(-c3ccccc3)[nH]2)cc1`, the mutagenic call runs as follows: under setting [6], “active; positive”; (Test System: AMES SALMONELLA TYPHIMURIUM, Strain/Indicator: TA98, Metabolic Activation: RAT LIVER S-9, 3-METHYLCHOLANTHRENE, SODIUM PHENOBARBITAL, Method: STANDARD PLATE) “inactive; negative”; under setting [5], “active; positive”; (Test System: AMES SALMONELLA TYPHIMURIUM, Strain/Indicator: TA100, Metabolic Activation: RAT LIVER S-9, 3-METHYLCHOLANTHRENE, SODIUM PHENOBARBITAL, Method: STANDARD PLATE) “inactive; negative”.
On to `NC(=O)c1cc(N2CC2)c([N+](=O)[O-])cc1[N+](=O)[O-]`, for which the mutagenic call was “inactive; negative” under setting [6]; “active; positive” under setting [5]; “active; positive” (Test System: E. COLI, Strain/Indicator: NFR-343, Metabolic Activation: NONE, Method: AGAR OVERLAY); “active; positive” (Test System: E. COLI, Strain/Indicator: NFR-343, Metabolic Activation: NONE, Method: STANDARD PLATE); “active; positive” (Test System: E. COLI, Strain/Indicator: NFR-343, Metabolic Activation: RAT, LIVER, S-9, AROCLOR 1254, Method: STANDARD PLATE); “active; positive” (Test System: E. COLI, Strain/Indicator: WP2, Metabolic Activation: NONE, Method: STANDARD PLATE). Further, the mutagenic call is, setting by setting: (Test System: E. COLI, Strain/Indicator: WP2 UVRA (PKM101), Metabolic Activation: NONE, Method: STANDARD PLATE) “active; positive”; (Test System: E. COLI, Strain/Indicator: WP2 UVRA, Metabolic Activation: NONE, Method: AGAR OVERLAY) “active; positive”; (Test System: E. COLI, Strain/Indicator: WP2 UVRA, Metabolic Activation: NONE, Method: STANDARD PLATE) “active; positive”; (Test System: E. COLI, Strain/Indicator: WP2 UVRA, Metabolic Activation: RAT, LIVER, S-9, AROCLOR 1254, Method: STANDARD PLATE) “active; positive”.
